From article PMC6690782 (Bioorganic & medicinal chemistry letters, 2019)

What was measured:
LAT1 = LAT1 (Homo sapiens, UniProt Q01650); assay: cis-inhibition assay: inhibition of [3H]-gabapentin uptake into HEK-hLAT1 cells; type: cell-based; settings: for fold decrease in potency relative to corresponding histidine/tryptophan analog: cis-inhibition IC50, 7d vs 16, 13 vs 22
[1] = cited from earlier work

Chain of LAT1 (Q01650 whole entry): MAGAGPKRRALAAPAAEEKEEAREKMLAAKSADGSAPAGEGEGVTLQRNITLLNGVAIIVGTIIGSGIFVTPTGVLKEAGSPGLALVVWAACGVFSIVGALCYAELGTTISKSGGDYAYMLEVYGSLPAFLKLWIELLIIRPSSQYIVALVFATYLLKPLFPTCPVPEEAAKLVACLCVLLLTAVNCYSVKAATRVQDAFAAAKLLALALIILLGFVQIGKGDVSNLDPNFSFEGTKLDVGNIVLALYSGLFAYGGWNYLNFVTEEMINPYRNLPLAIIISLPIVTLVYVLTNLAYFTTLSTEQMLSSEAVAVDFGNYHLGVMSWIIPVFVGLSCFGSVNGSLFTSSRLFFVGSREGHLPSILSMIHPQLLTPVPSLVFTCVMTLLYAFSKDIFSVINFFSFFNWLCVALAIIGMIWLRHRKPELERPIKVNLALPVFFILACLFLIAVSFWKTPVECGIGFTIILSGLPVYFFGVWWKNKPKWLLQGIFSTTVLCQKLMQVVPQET
Chain of LAT1 (P08195 102-630 partner): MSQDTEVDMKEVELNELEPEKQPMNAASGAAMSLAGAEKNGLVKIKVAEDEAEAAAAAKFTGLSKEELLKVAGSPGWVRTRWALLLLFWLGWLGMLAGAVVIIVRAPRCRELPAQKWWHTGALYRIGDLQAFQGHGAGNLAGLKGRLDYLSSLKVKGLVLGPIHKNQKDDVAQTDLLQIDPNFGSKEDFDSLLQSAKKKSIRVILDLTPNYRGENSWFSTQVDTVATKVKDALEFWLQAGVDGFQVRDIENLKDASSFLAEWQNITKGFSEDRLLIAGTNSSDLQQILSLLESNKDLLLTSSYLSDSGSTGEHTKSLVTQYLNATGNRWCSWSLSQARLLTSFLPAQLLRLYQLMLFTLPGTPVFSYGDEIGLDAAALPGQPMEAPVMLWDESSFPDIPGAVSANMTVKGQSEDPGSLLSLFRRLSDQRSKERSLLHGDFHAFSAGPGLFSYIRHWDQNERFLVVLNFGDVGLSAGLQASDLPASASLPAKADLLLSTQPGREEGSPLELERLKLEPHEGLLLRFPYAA

SMILES	inhibition at 200 µM (LAT1) [%]	fold decrease in potency relative to corresponding histidine/tryptophan analog (LAT1) [fold]	also measured
N[C@@H](Cc1cn(Cc2ccccc2)cn1)C(=O)O [Compound 17, reference compound]	74	–	–
Cc1cn(C[C@H](N)C(=O)O)nn1 [Compound 7d]	–	2	–
N[C@@H](Cn1nnc2ccccc21)C(=O)O [Compound 13]	–	2	–
c1c[nH]nn1 [1,2,3-triazole]	–	–	pKa of conjugate acid [1]: 1.15
N[C@@H](Cc1cn(Cc2ccccc2)nn1)C(=O)O [Compound 11e]	-19	–	–
